≈ marks a conversion by molar mass, not a printed value. Like-named read-outs stand apart in the source and are kept apart here.
Assays:
[1] = tested on: Staphylococcus aureus ATCC 43300 (MRSA); assay: microbe, parasite or virus in culture; format: cell-based; settings: Staphylococcus aureus
Procedure: All compounds submitted to CO‐ADD are initially screened against five bacterial strains (Staphylococcus aureus (MRSA), E. coli, Klebsiella pneumoniae, Pseudomonas aeruginosa, Acinetobacter baumannii) and two fungal strains (Candida albicans, Cryptococcus neoformans) at a single concentration (32 μg/mL or 20 μM) performed as a high‐throughput primary screening.[[11], [17a]] Any compounds that show significant growth inhibition against any of the tested strains at this step are then evaluated in a dose‐response assay against these same strains. […]
(§1) Smiles: C1C=CCCC(=CC1)C1=CCCC=CCC1.C[Pt]C.C[Pt]C […]
(§2) ATCC strains were sourced from the American Type Culture Collection and NRS strains from NARSA (Network on Antimicrobial Resistance in Staphylococcus aureus) via BEI Resources (www.beiresources.org), with clinical MSSA and MRSA isolates from Prof Graeme Nimmo, Queensland […]
(§3) Health Central Pathology. […]
(§4) Antibacterial minimum inhibitory concentration (MIC) assay
(§5) Compound Assay Plate Preparation: Compounds were dissolved in DMSO at 10mM (CO-ADD screening) or 4 mM (follow up screening) and were plated in a 2-fold dose response from 20 to 0.156 µM or 200 to 0.006 µM respectively, with a maximum of 0.5% or 1% DMSO, final in the assay […]
(§6) plated in a 2-fold dose response from 200 to 0.006 µM, with a maximum of 1 % DMSO, final in the assay concentration. (in-house screening)
(§7) For all the bacterial assays, each strain was cultured in Cation-adjusted Mueller Hinton broth (CAMHB; Bacto Laboratories 212322) at 37 °C overnight. A sample of each culture was then diluted 40-fold in fresh CAMHB and incubated at 37 °C for 1.5–3 h. The resultant mid-log phase cultures were diluted with CAMHB (CFU mL−1 measured by OD600), then added to each well of the compound-containing plates (384-well non-binding surface (NBS) plates; Corning CLS3640), giving a cell density of 5 × 10^5 CFU mL−1 and a total volume of 50 μL. Plates were covered and incubated at 37 °C for 18 h without shaking. Inhibition of bacterial growth was determined measuring absorbance at 600 nm (OD600), using media only as negative control and bacteria without inhibitors as positive control. MIC values were determined as the lowest concentration at which the growth was inhibited at ≥80%. Colistin sulfate (Sigma C4461) and vancomycin HCl (Sigma 861987) were used as internal controls on each plate for Gram-negative and Gram-positive bacteria, respectively. […]

[2] = tested on: Staphylococcus aureus ATCC 25923, MSSA; assay: Antibacterial MIC assay, Gram-positive panel; format: cell-based; settings: Staphylococcus aureus
Excerpt: (§8) Bis(dimethyl-η4)-((1Z,1'E,5Z,5'E)-(1,1'-bi(cyclooctadiene))diplatinum(II) (Pt14) Smiles: C1C=CCCC(=CC1)C1=CCCC=CCC1.C[Pt]C.C[Pt]C
(§9) InChIKey: PHIWIZAHOBWKFJ-HPCBIOCFSA-N
(§10) Link to selected data that was repeated to approve the identity of the compounds: https://dx.doi.org/10.14272/PHIWIZAHOBWKFJ-HPCBIOCFSA-N.1
as §2, §3, §4, §5, §6, §7

[3] = tested on: Staphylococcus aureus VRS 1, VRSA (VanA); assay: Antibacterial MIC assay, Gram-positive panel; format: cell-based; settings: Staphylococcus aureus, VRSA
Excerpt: as §8, §9, §10, §2, §3, §4, §5, §6, §7

[4] = tested on: Bacillus subtilis ATCC 6051, type strain; assay: Antibacterial MIC assay, Gram-positive panel; format: cell-based; settings: Bacillus subtilis
Procedure: as §1, §2, §3, §4, §5, §6, §7

[5] = tested on: Enterococcus faecalis ATCC 29212, control strain; assay: Antibacterial MIC assay, Gram-positive panel; format: cell-based; settings: Enterococcus faecalis
Procedure: as §1, §2, §3, §4, §5, §6, §7

[6] = tested on: Enterococcus faecalis Clinical Isolate, VRE (VanB); assay: Antibacterial MIC assay, Gram-positive panel; format: cell-based; settings: Enterococcus faecalis, VRE
Procedure: as §1, §2, §3, §4, §5, §6, §7

[7] = tested on: Enterococcus faecium ATCC 35667, type strain; assay: Antibacterial MIC assay, Gram-positive panel; format: cell-based; settings: Enterococcus faecium
Procedure: as §1, §2, §3, §4, §5, §6, §7

[8] = tested on: Enterococcus faecium ATCC 51559, MDR, VRE (VanA); assay: Antibacterial MIC assay, Gram-positive panel; format: cell-based; settings: Enterococcus faecium
Procedure: as §1, §2, §3, §4, §5, §6, §7

[9] = tested on: Enterococcus faecium Clinical Isolate, VRE (VanA); assay: Antibacterial MIC assay, Gram-positive panel; format: cell-based; settings: Enterococcus faecium, VRE
Procedure: as §1, §2, §3, §4, §5, §6, §7

[10] = tested on: Staphylococcus aureus NRS 17, GISA; assay: Antibacterial MIC assay, Gram-positive panel; format: cell-based; settings: Staphylococcus aureus
Procedure: as §1, §2, §3, §4, §5, §6, §7

[11] = tested on: Staphylococcus epidermidis ATCC 14990, type strain; assay: Antibacterial MIC assay, Gram-positive panel; format: cell-based; settings: Staphylococcus epidermidis
Procedure: as §1, §2, §3, §4, §5, §6, §7

[12] = tested on: Staphylococcus epidermidis NRS 60, VISE; assay: Antibacterial MIC assay, Gram-positive panel; format: cell-based; settings: Staphylococcus epidermidis
Procedure: as §1, §2, §3, §4, §5, §6, §7

[13] = tested on: B. subtilis ATCC 6051 type strain; assay: MIC in the presence of human serum (serum reversal); format: cell-based, Bacillus subtilis; settings: Bacillus subtilis, ATCC6051, read-out: MIC in the presence of human serum
Excerpt: (§11) To obtain some initial insight into the apparent disparity between in vitro and in vivo results, we repeated the MIC experiments against four selected Gram‐positive strains in the presence of 10 % or 50 % human serum (Table S3). Pt1 and Pt2 maintained some antibacterial activity against B. subtilis in the presence of 10 % serum, but a complete loss of activity was observed against MRSA and GISA (50 % serum), and VRE (10 % serum). […] Systemic administration is therefore unlikely to be a suitable administration route for this class of compounds unless an alternative formulation that can prevent serum binding (e. g. by lipid or nanoparticle encapsulation) can be found. […] Further in vivo studies should therefore focus on more suitable disease models. […]
as §4
(§12) concentration. (in-house screening)
(§13) Bacto Laboratories 212322) at 37 °C overnight.
(§14) The resultant mid-log phase cultures were diluted
(§15) Gram-negative and Gram-positive bacteria, respectively.
(§16) final concentration range of 0.8 – 100 µM.
(§17) inhibitors as positive control. […]

[14] = tested on: S. aureus ATCC 43300 MRSA; assay: as above; format: cell-based, Staphylococcus aureus; settings: Staphylococcus aureus, read-out: MIC in the presence of human serum
Excerpt: as §11, §4, §12, §13, §14, §15, §16, §17

[15] = tested on: S. aureus NRS 17 GISA; assay: as above; format: cell-based, Staphylococcus aureus; settings: Staphylococcus aureus, NRS17, read-out: MIC in the presence of human serum
Excerpt: as §11, §4, §12, §13, §14, §15, §16, §17

[16] = tested on: E. faecium ATCC 51559 MDR, VRE; assay: as above; format: cell-based, Enterococcus faecium; settings: Enterococcus faecium, read-out: MIC in the presence of human serum
Excerpt: as §11, §4, §12, §13, §14, §15, §16, §17

Structure (SMILES): CN[C@H](CC(C)C)C(=O)N[C@H]1C(=O)N[C@@H](CC(N)=O)C(=O)N[C@H]2C(=O)N[C@H]3C(=O)N[C@H](C(=O)N[C@H](C(=O)O)c4cc(O)cc(O)c4-c4cc3ccc4O)[C@H](O)c3ccc(c(Cl)c3)Oc3cc2cc(c3O[C@@H]2O[C@H](CO)[C@@H](O)[C@H](O)[C@H]2O[C@H]2C[C@](C)(N)[C@H](O)[C@H](C)O2)Oc2ccc(cc2Cl)[C@H]1O [Vancomycin, reference compound]
- MIC ([1]; Table 2 panel, n=2): 0.35 to 0.69 µg/mL (≈ 0.242 to 0.476 µM)
- MIC ([1]; Table S1, vancomycin control): 0.5 to 1 µg/mL (≈ 0.345 to 0.69 µM)
- MIC ([1]; read-out: MIC Sa, CO‐ADD screening, control antibiotic): 1 µg/mL (≈ 0.69 µM)
- MIC ([2]; Table 2 panel, n=4): 0.69 µg/mL (≈ 0.476 µM)
- MIC ([2]; Table S1, vancomycin control): 1 µg/mL (≈ 0.69 µM)
- MIC ([3]; Table 2 panel, n=4): > 44.2 µg/mL
- MIC ([3]; Table S1, vancomycin control): > 64 µg/mL
- MIC ([4]; ATCC6051, Table 2 panel, n=2): 0.35 µg/mL (≈ 0.242 µM)
- MIC ([4]; ATCC6051, Table S1, vancomycin control): 0.5 µg/mL (≈ 0.345 µM)
- MIC ([5]; ATCC29212, Table 2 panel, n=4): 1.38 to 2.76 µg/mL (≈ 0.952 to 1.9 µM)
- MIC ([5]; ATCC29212, Table S1, vancomycin control): 2 to 4 µg/mL (≈ 1.38 to 2.76 µM)
- MIC ([6]; Table 2 panel, n=4): > 44.2 µg/mL
- MIC ([6]; Table S1, vancomycin control): 64 µg/mL (≈ 44.2 µM)
- MIC ([7]; ATCC35667, Table 2 panel, n=4): 0.35 µg/mL (≈ 0.242 µM)
- MIC ([7]; ATCC35667, Table S1, vancomycin control): 0.5 µg/mL (≈ 0.345 µM)
- MIC ([8]; Table 2 panel, n=2): > 44.2 µg/mL
- MIC ([8]; Table S1, vancomycin control): > 64 µg/mL
- MIC ([9]; Table 2 panel, n=4): > 44.2 µg/mL
- MIC ([9]; Table S1, vancomycin control): > 64 µg/mL
- MIC ([10]; NRS17, Table 2 panel, n=2): 5.52 µg/mL (≈ 3.81 µM)
- MIC ([10]; NRS17, Table S1, vancomycin control): 8 µg/mL (≈ 5.52 µM)
- MIC ([11]; ATCC14990, Table 2 panel, n=4): 0.69 to 1.38 µg/mL (≈ 0.476 to 0.952 µM)
- MIC ([11]; ATCC14990, Table S1, vancomycin control): 1 to 2 µg/mL (≈ 0.69 to 1.38 µM)
- MIC ([12]; NRS60, Table 2 panel, n=4): 2.76 µg/mL (≈ 1.9 µM)
- MIC ([12]; NRS60, Table S1, vancomycin control): 4 µg/mL (≈ 2.76 µM)
- MIC [13]: 0.5 µg/mL
- MIC [14]: 0.5 to 1 µg/mL
- MIC [15]: 8 µg/mL
- MIC [16]: > 64 µg/mL

Reference: article PMC8596843, “Platinum Cyclooctadiene Complexes with Activity against Gram‐positive Bacteria” (Chemmedchem, 2021)
